# Data: patent US8129123B2, “Methods for assessing atherogenesis by determining oxidized phospholipid to apolipoprotein B ratios” (The Regents of the University of California, priority 2004, dated 2012)
# Read-outs that look alike come from different tables or passages of the source.
# How the values were obtained:
# ApoB-100 = assay: Plasma apoB-100 level (Behring kit); assay type: in vivo, human
# Method: (§1) The MIRACL study design was previously published. Briefly, the study recruited 3086 patients with unstable angina or non-Q-wave acute myocardial infarction between 24-96 hours after hospital admission at 122 centers in 19 countries. Patients were randomly assigned to double-blind treatment with atorvastatin 80 mg/day or placebo for 16 weeks. The primary efficacy measure was the time to first occurrence of death, nonfatal acute myocardial infarction, cardiac arrest with resuscitation, or worsening angina with new objective evidence of ischemia and requiring emergency re-hospitalization. […] Patients were analyzed on an intention-to-treat basis.
# (§2) Plasma Lp(a) levels were measured by a chemiluminescent ELISA with monoclonal antibody LPA4, as previously described. […] ApoB-100 levels were measured by a commercially available kit (Behring) and CRP levels as previously described.
# (§3) Since the baseline and Week 16 distributions of the OxLDL markers were positively skewed, log-transformed values were used in the statistical models and analyses and antilog-transformed for descriptive statistics yielding geometric means and 95% confidence intervals (CI) for baseline, Week 16 and percent change from baseline to Week 16. […] Pearson correlations were calculated to summarize the relationship between OxPL/apoB and Lp(a) at baseline and at Week 16. […]
# [1] = test system: apoB-100 immune complexes; assay: Apolipoprotein B-100 immune complexes (IC/apoB and Total apoB-IC, IgG and IgM) chemiluminescent ELISA in plasma; assay type: in vivo, human
# Method: (§4) The MIRACL study design was previously published. Briefly, the study recruited 3086 patients with unstable angina or non-Q-wave acute myocardial infarction between 24-96 hours after hospital admission at 122 centers in 19 countries. Patients were randomly assigned to double-blind treatment with atorvastatin 80 mg/day or placebo for 16 weeks. The primary efficacy measure was the time to first occurrence of death, nonfatal acute myocardial infarction, cardiac arrest with resuscitation, or worsening angina with new objective evidence of ischemia and requiring emergency re-hospitalization. 2739 patients completed the entire 16 week follow-up period, of whom 2442 had baseline blood samples and 2341 had baseline and Week 16 blood samples available for analysis. Blood was collected in EDTA and stored at −70° C. until analysis. Patients were analyzed on an intention-to-treat basis.
# (§5) Chemiluminescent ELISA was used to measure OxLDL markers (FIG. 1A-1C). All samples for a given assay were run in a single assay and internal controls consisting of high and low standard plasma samples were included to detect potential variations between microtitration plates. Each sample was assayed in triplicate and data are expressed as relative light units (RLU) in 100 milliseconds. The intra-assay coefficients of variation for all assays were 6-10%.
# (§6) The data for OxLDL-E06 and apoB-IC are presented in two ways: 1) as OxPL/apoB and IC/apoB, which specifically quantifies the content of OxPL and IC, respectively, on each captured apoB-100 particle, and 2) as Total apoB-OxPL and Total apoB-IC, which reflects the OxPL and IC content on all apoB-100 containing particles in plasma, by multiplying the plasma “OxPL/apoB” and “IC/apoB” value by the plasma apoB-100 levels measured independently as noted below.
# (§7) Plasma titers of IgG and IgM apoB-IC and malondialdehyde (MDA-LDL) (1:200 plasma dilution) autoantibodies and apoB-IC were measured as previously described.
# Since the baseline and Week 16 distributions of the OxLDL markers were positively skewed, log-transformed values were used in the statistical models and analyses and antilog-transformed for descriptive statistics yielding geometric means and 95% confidence intervals (CI) for baseline, Week 16 and percent change from baseline to Week 16. Inferential analyses included paired-sample t-tests for within treatment group differences in markers at baseline versus Week 16, and independent-sample t-tests for between treatment group differences in markers at Week 16 and between treatment group differences in absolute change in log-transformed markers from baseline to Week 16. Logistic regression models were constructed to summarize the relationships between baseline OxLDL values and the primary efficacy measure of the trial. For each marker, the logistic regression model included terms for log-transformed marker and randomized treatment assignment; odds ratios were expressed as the relative odds for each one unit increase in the log-transformed marker. Pearson correlations were calculated to summarize the relationship between OxPL/apoB and Lp(a) at baseline and at Week 16. Statistical significance was defined as P<0.05.
# [2] = entire MIRACL population, 16 weeks; cited from earlier work
# Lp(a) = assay: Plasma Lp(a) level, chemiluminescent ELISA with antibody LPA4; assay type: in vivo, human
# Method: as §1, §2, §3
# [3] = test system: oxidized phospholipids (OxPL) on apoB-100 particles; assay: OxLDL-E06 chemiluminescent ELISA (OxPL/apoB and Total apoB-OxPL) in plasma; assay type: in vivo, human
# Method: as §4, §5
# OxLDL-E06 is a measure of the content of oxidized phospholipids (OxPL) per apoB-100 particle using the murine monoclonal antibody E06, which specifically binds to the phosphorylcholine head group of oxidized but not native phospholipids. A 1:50 dilution of plasma in phosphate-buffered saline (PBS) is added to microtiter wells coated with the monoclonal antibody MB47 (5 μg/ml), which specifically binds apoB-100 particles. Under these conditions, a saturating amount of apoB-100 is added to each well and consequently an equal number of apoB-100 particles are captured in each well for all assays. The content of OxPL per apoB-100 is then determined with biotinylated E06. In a previous study we directly measured the amount of apoB-100 bound in each well by the degree of binding of a biotinylated anti-apoB-100 antibody, and compared the OxPL RLU values alone to the ratio of OxPL RLU/apoB-100 RLU and found a correlation of r^2=0.99 (n=1500 samples). Therefore, we arbitrarily assigned the apoB-100 RLU value in the denominator as 1 and report the OxPL/apoB values as OxPL RLU counts only. Note that by design, this assay normalizes the OxPL content per apoB-100 particle and is therefore independent of plasma apoB-100 (and thus LDL-cholesterol) levels.
# as §6
# Since the baseline and Week 16 distributions of the OxLDL markers were positively skewed, log-transformed values were used in the statistical models and analyses and antilog-transformed for descriptive statistics yielding geometric means and 95% confidence intervals (CI) for baseline, Week 16 and percent change from baseline to Week 16. […]
# LDL cholesterol [4] = conditions: PROVE-IT, two years' treatment, 80 mg atorvastatin versus 40 mg pravastatin; cited from earlier work
# [5] = MIRACL trial: primary efficacy measure (recurrent ischemic events) over 16 weeks; assay type: in vivo, human; conditions: 2442 patients with baseline data, 16-week follow-up
# Method: as §1
# (§8) Since the baseline and Week 16 distributions of the OxLDL markers were positively skewed, log-transformed values were used in the statistical models and analyses and antilog-transformed for descriptive statistics yielding geometric means and 95% confidence intervals (CI) for baseline, Week 16 and percent change from baseline to Week 16. […] For each marker, the logistic regression model included terms for log-transformed marker and randomized treatment assignment; odds ratios were expressed as the relative odds for each one unit increase in the log-transformed marker. Pearson correlations were calculated to summarize the relationship between OxPL/apoB and Lp(a) at baseline and at Week 16. […]
# MDA-LDL autoantibodies = assay: Autoantibodies to MDA-LDL (IgG and IgM) chemiluminescent ELISA in plasma; assay type: in vivo, human
# Method: as §4
# Chemiluminescent ELISA was used to measure OxLDL markers (FIG. 1A-1C). […] Each sample was assayed in triplicate and data are expressed as relative light units (RLU) in 100 milliseconds. […]
# as §7, §8
# LDL cholesterol [6] = assay: Plasma LDL cholesterol in MIRACL patients; assay type: in vivo, human
# Method: as §4, with “MIRACL” left out, “-70°” for “−70°”
# [7] = Week 16, atorvastatin 80 mg/day, ACS patients, geometric mean
structure (smiles),measurement,setting,value
CC(C)c1c(C(=O)Nc2ccccc2)c(-c2ccccc2)c(-c2ccc(F)cc2)n1CC[C@@H](O)C[C@@H](O)CC(=O)O [atorvastatin],ApoB-100 mean level,ApoB-100; [7],87 mg/dL
same,apoB-100 percent change from baseline,"ApoB-100; baseline to Week 16, 80 mg/day",−33.0%
same,IC/apoB IgG mean level,[1]; [7],9048 RLU
same,IC/apoB IgM mean level,[1]; [7],3933 RLU
same,Total apoB-IC IgG mean level,[1]; [7],749 (RLU · mg/dl) × 10^3
same,Total apoB-IC IgM mean level,[1]; [7],325 (RLU · mg/dl) × 10^3
same,IgG IC/apoB relative increase from baseline,"[1]; baseline to Week 16, 80 mg/day",9.6%
same,IgM IC/apoB relative increase from baseline,"[1]; baseline to Week 16, 80 mg/day",15.4%
same,Total apoB-IC IgG percent change from baseline,"[1]; baseline to Week 16, 80 mg/day",−29.5%
same,Total apoB-IC IgM percent change from baseline,"[1]; baseline to Week 16, 80 mg/day",−25.7%
same,patients with a primary endpoint event,[2],14.6%
same,Lp(a) mean level,Lp(a); [7],13.0 mg/dL
same,Lp(a) relative increase from baseline,"Lp(a); baseline to Week 16, 80 mg/day",8.8%
same,OxPL/apoB mean level,[3]; [7],11048 RLU
same,Total apoB-OxPL mean level,[3]; [7],912 (RLU · mg/dl) × 10^3
same,OxPL/apoB relative increase from baseline,"[3]; baseline to Week 16, 80 mg/day",9.5%
same,Total apoB-OxPL percent change from baseline,"[3]; baseline to Week 16, 80 mg/day",−29.7%
same,"OxPL enrichment of apoB particles (OxPL/apoB), absolute difference compared to placebo","[3]; baseline to Week 16 change, atorvastatin vs placebo",13.4%
same,median LDL cholesterol level,LDL cholesterol [4],62 mg/dL
same,patients with a primary endpoint event,[5],10.7%
same,Autoantibodies to MDA-LDL IgG mean level,MDA-LDL autoantibodies; [7],4922 RLU
same,Autoantibodies to MDA-LDL IgM mean level,MDA-LDL autoantibodies; [7],1088 RLU
same,IgG and IgM MDA-LDL autoantibody level increase,"MDA-LDL autoantibodies; baseline to Week 16, range stated for both groups (atorvastatin and placebo)",9.1-14.4%
same,LDL cholesterol level after treatment,"LDL cholesterol [6]; Week 16 (from 124±34 at baseline), 80 mg/day",72 ± 35 mg/dL
same,reduction in LDL cholesterol,"LDL cholesterol [6]; baseline to Week 16, 80 mg/day",42%
